According to article PMC12526218, “Design, Synthesis and Herbicidal Activity of 1,2,4-Oxadiazole Compounds as Novel Light-Dependent Protochlorophyllide Oxidoreductase Inhibitors” (Molecules, 2025):

Target: Light-dependent protochlorophyllide oxidoreductase (AtLPOR)
Assay: Plant LPOR ELISA kit on Arabidopsis leaf extract, IC50
Type: biochemical, Arabidopsis thaliana

| IC50 [µM] | Compound |
| --- | --- |
| 111 | O=[N+]([O-])c1ccc(-c2noc(COCc3ccccc3)n2)cc1 [5j, 5-((benzyloxy)methyl)-3-(4-nitrophenyl)-1,2,4-oxadiazole] |
| 83.6 | O=[N+]([O-])c1cccc(-c2noc(COCc3ccccc3)n2)c1 [5k, 5-((benzyloxy)methyl)-3-(3-nitrophenyl)-1,2,4-oxadiazole] |
| 17.6 | c1ccc(COCc2nc(-c3ccc(OCc4ccccc4)cc3)no2)cc1 [5q, 5-((benzyloxy)methyl)-3-(4-(benzyloxy)phenyl)-1,2,4-oxadiazole] |
